# Patent publication US8956594B2, “Fluoride-calcium compositions, dental products, and methods for providing dental fluoride” (ADA Foundation, priority 2005, dated 2015)
# Details: used in the absence of phosphate, in some trials
# Excerpt: The anion may be any suitable stabilizing anion, by which is contemplated to be an anion the inclusion of which results in a composition that is stable for storage and transport as against precipitation of calcium fluoride, the composition not being stable (or as stable) for storage and transport as against precipitation of calcium fluoride in the absence of the anion. In some embodiments, the anion contains the O—PO—O moiety. […] Plural anions may be employed in a single composition.
smiles,measurement,value
O=P(O)(O)OP(=O)(O)O [pyrophosphate],effectiveness as stabilizing anion,not to be effective
